Publication PMC6482291, “Anticonvulsant Activity of Pterostilbene in Zebrafish and Mouse Acute Seizure Tests” (Neurochemical Research, 2019)
Blank lines part the entries; values can stand above or below the compound they belong to.

Tests used:
[1] = system: PTZ-induced seizures in rats; settings: PTZ test in rats; cited from earlier work
MES seizures in mice = system: MES seizures in mice; set-up: method as in PMID 27600732; settings: cited from earlier work
[2] = system: 6 Hz psychomotor seizures in mice; set-up: method as in PMID 27600732; settings: cited from earlier work
rats = system: rats; set-up: method as in PMID 24717328; settings: acute and chronic administration; cited from earlier work
[3] = system: PTZ-induced seizures in mice; assay: Timed iv PTZ seizure threshold test in mice; type: in vivo; settings: VPA 150 mg/kg ip, 15 min before test
Description: Each mice was placed in the cylindrical restrainer and the needle (27G, 3/4 in., Sterican®, B. Braun Melsungen AG, Melsungen, Germany) was injected into the lateral tail vein. The needle was attached by the polyethylene drain (PE20RW, Plastic One Inc. Roanoke, VA, USA) with the syringe containing 1% solution of PTZ (Sigma–Aldrich, St. Louis, MO, USA) in water and the syringe was located in the infuse pomp (model Physio 22, Hugo Sachs Elektronik–Harvard Apparatus GmbH, March-Hugstetten, Germany). The correct placement of the needle in the vein was confirmed based on the presence of the blood in the drain and the needle was protected against displacement by a peace of adhesive tape. Following injection, mice were took out from the restrainer and placed in the Plexiglas box for observation. The PTZ solution was infused into the vein at a constant rate of 0.2 ml/min. The time intervals from the start of infusion of PTZ solution to the beginning of three kinds of seizures, i.e., the first myoclonic twitch, generalized clonus with loss of the righting reflex and forelimb tonic extension, were noted. Infusion of PTZ solution was stopped immediately after onset of the tonic seizures, which usually were lethal. If animal survived the test, it was euthanized immediately. The threshold dose of PTZ (in mg/kg body weight) for each kind of seizures was calculated according to the following formula: PTZmg/kg=infusion durations×infusion rateml/s×PTZ concentrationmg/ml/weightkg
Experimental groups consisted of 9–13 animals. The data obtained in the iv PTZ test are presented as the threshold dose of PTZ (in mg/kg) + standard error of the mean (SEM) needed to elicit the respective kind of seizures. The data were analyzed by one-way ANOVA followed by the Tukey’s multiple comparison test. Statistical significance was noted when p values were equal or lower than 0.05.

[4] = system: maximal electroshock seizures in mice; assay: Maximal electroshock seizure threshold (MEST) test; type: in vivo; settings: VPA 150 mg/kg ip
From the text: Seizures in the MEST test were evoked by applying a sine-wave alternating current (maximal output voltage 500 V, 50 Hz for 0.2 s) generated by constant current stimulator (Rodent Shocker, Type 221, Hugo Sachs Elektronik, Freiburg, Germany). The stimulation was delivered by saline-socked transcorneal electrodes. Before the stimulation 1% solution of tetracaine hydrochloride was applied into animals’ eyes for local anesthesia. During the stimulation animals were restrained manually and immediately after the stimulation they were placed in the Plexiglas box for observation. The endpoint evaluated in the test was the maximal electroconvulsion which was defined as extension of the hindlimbs above a 90° angle to the torso of animal.
The threshold for maximal electroshock was determined according to the up-and-down method described by Kimball et al.. The mice in the experimental group were subjected to the stimuli with different current intensities (range of 8–30 mA) which changes in 0.06-log steps. If stimulated mouse respond with seizures, the next mouse in the group was stimulated with current of intensity 0.06-log step lower than the previous one. […] Groups of 20 stimulated animals were used to calculate the threshold current strength (CS50 in mA; the current strength which induces tonic hindlimb extension in 50% of the tested animals) with SEM.
CS50 values were compared with one-way ANOVA followed by the Tukey’s multiple comparison test.

[5] = system: 6 Hz-induced psychomotor seizures in mice; assay: 6 Hz psychomotor seizure threshold test; type: in vivo; settings: VPA 50 mg/kg ip, 15 min before test; 95% confidence limits in brackets
From the text: Psychomotor (limbic) seizures were induced by transcorneal stimulation (6 Hz, 0.2 ms rectangular pulse, 3 s duration) generated by a Grass S48 stimulator coupled with a constant current unit CCU1 (both from Grass Technologies, West Warwick, RI, USA). Before stimulation a drop of ocular anesthetic, 1% tetracaine hydrochloride solution, was applied into the animals’ corneas. The electrodes were soaked in saline to ensure the good electrical contact. During the stimulation animals were restrained manually and immediately after the stimulation were placed in a Plexiglas box for observation of presence or absence of the psychomotor seizures. These seizures were characterized by immobilization or stun, often associated with rearing, forelimb clonus, twitching of vibrissae and elevated tail (Straub-tail), lasting at least 10 s from the stimulation. Lack of the above symptoms or their cessation within 10 s from the stimulation was considered as absence of seizure activity.
In the present study two 6 Hz-induced psychomotor seizure tests were performed: (1) the 6 Hz psychomotor seizure threshold test which employed stimulation at varied current intensities, and (2) the 6 Hz psychomotor seizure test with supramaximal stimulation at 32 mA and 44 mA.
In the 6 Hz psychomotor seizures threshold test, threshold current intensity (CS50 in mA) was estimated in groups of 20 animals according to the above mentioned up-and-down method.

mice [6] = assay: Grip-strength test; type: in vivo; settings: 15 min before test
Description: The acute effect of PTE on the skeletal muscles strength in mice was determined in the grip strength test. The apparatus for this test (BioSeb, Chaville, France) consisted of a steel wire grid (8 × 8 cm) connected to an isometric force transducer. Each mouse was lifted by tail and allowed to grasp the grid with its forepaws and then it was gently pulled backward until its released the grid. The maximal force in newtons (N) exerted by mouse before leaving the grid was recorded. The mean of three consecutive measurements for each animal was calculated and normalized to body weight (mN/g).
Experimental groups consisted of 12 animals. Results obtained in the grip-strength test were compared using one-way ANOVA followed by the Tukey’s post-hoc multiple comparison test.

mice [7] = assay: Chimney test; type: in vivo; settings: 15 min before test
Description: The chimney test was performed to evaluate influence of PTE on motor coordination in mice. During the test mice had to climb backwards up the plastic transparent cylinder (inner diameter 3 cm and length 30 cm) with gravelly inside. The inability of mice to escape from the cylinder within 60 s was considered as an motor impairment. Results obtained in the test were presented as percent of impaired mice in groups of 10–12 animals and were compared with the Fisher’s exact probability test.

mice [8] = assay: Forced swim test; type: in vivo; settings: IMI 20 mg/kg ip; p < 0.05
Description: The forced swim test was carried out according to the method described by Porsolt et al. to assess antidepressant properties of PTE. Mice were placed individually in a glass cylinder (25 cm high; 10 cm diameter) containing tap water to a depth of 11 cm. Water was maintained at temperature of 23–25 °C. Mice were permitted to swim for 6 min and duration of their immobility was recorded during the last 4 min of the test by a trained experimenter who was blinded to the treatment. Immobility time was recorded using cumulative stopwatches. Mouse was considered to be immobile when it was floating in the water without struggling and making no attempts to escape, it was making only these movements necessary to keep its head above the water. After each trial, the water in the cylinder was replaced with fresh water. Experimental groups consisted of 10 animals.
Data obtained in the forced swim test were expressed as the mean (in s) + SEM immobility time in each experimental group. Results were analyzed by one-way ANOVA.

Structure (SMILES): Oc1ccc(/C=C/c2cc(O)cc(O)c2)cc1 [RES, resveratrol]
duration of clonic seizures [1]: reduced the duration
incidence of the generalized tonic-clonic seizures [1]: decreased incidence
anticonvulsant activity in the MES test (MES seizures in mice): showed significant anticonvulsant activity neither in the MES nor 6 Hz psychomotor seizure tests
anticonvulsant activity in the 6 Hz psychomotor seizure test [2]: showed significant anticonvulsant activity neither in the MES nor 6 Hz psychomotor seizure tests
immobility time in the forced swim test (rats): decreased immobility time

Neuromuscular strength (mice [6]; VPA 50 mg/kg ip): 31.12 ± 1.20 mN/g
Neuromuscular strength (mice [6]; VPA 150 mg/kg ip): 25.36 ± 0.92 mN/g
Impairment of motor coordination (percentage of animals) (mice [7]; VPA 50 mg/kg ip): 0%
Impairment of motor coordination (percentage of animals) (mice [7]; VPA 150 mg/kg ip): 0%
Structure (SMILES): CCCC(CCC)C(=O)O [VPA, valproic acid, reference compound]
threshold for the first myoclonic twitch vs negative control ([3]; p < 0.001): Statistically significant increases
increase of threshold for generalized clonic seizures vs negative control ([3]; p < 0.01): over 45%
threshold for tonic forelimb extension vs negative control ([3]; p < 0.01): Statistically significant increase
CS50 (seizure threshold) ([4]; 15 min before test, 95% confidence limits in brackets): 14.13 (13.27–15.04) mA
increase of seizure threshold vs negative control ([4]; p < 0.001): ~ 49%
CS50 (psychomotor seizure threshold) [5]: 15.97 (15.13–16.85) mA

Structure (SMILES): CN(C)CCCN1c2ccccc2CCc2ccccc21 [IMI, imipramine, reference compound]
immobility time vs control (mice [8]): Statistically significant difference
